test system: platelet aggregation; assay: Test for platelet aggregation-inhibiting activity of rabbit (PAF-induced aggregation in platelet rich plasma); assay type: cell-based; parameters: dose or concentration left out as unconfirmed; settings: rabbit PRP, 37°C, 10 minutes incubation, aggregation by PAF (10 μl); test compound concentration not given
Experimental: 2. Test for platelet aggregation-inhibiting activity of rabit
A blood of a rabbit (Japanese white; male; 2.5-3.0 kg) was exsanguinated from a carotid of the rabbit, and nine parts of the blood were mixed with one part of a 3.8% aqueous solution of sodium citrate. The mixture was centrifuged at 1100 rpm at 20°C. for 15 minutes. The upper layer is a platelet rich plasma (PRP), and the lower layer was centrifuged at 2500 rpm at 20° C. for 10 minutes, so that a platelet poor plasma (PPP) was obtained.
10 μl of a solution of the compound to be tested was added to 200 μl of PRP, and the mixture was subjected to incubation at 37°C. for 10 minutes. To the mixture was added 10 μl of a platelet activating factor (PAF)(10 mg/ml). The agglutination was measured by Agricometer (NKK, PAT-4A).

First: COC(=O)C1=C(C)NC(C)=C(C(=O)NCC(=O)N2CCCC2)C1c1cccc([N+](=O)[O-])c1 (stereo not drawn) [Example 57, methyl 1,4-dihydro-2,6-dimethyl-4-(3-nitrophenyl)-5-[N-[(pyrrolidin-1-yl)carbonylmethyl]carbamoyl]pyridine-3-carboxylate]
Second: CCOC(=O)CNC(=O)C1=C(C)NC(C)=C(C(=O)OC)C1c1cccc([N+](=O)[O-])c1 (stereo not drawn) [Example 62, ethyl 2-[N-[1,4-dihydro-2,6-dimethyl-5-methoxycarbonyl-4-(3-nitropheny1)pyridine-3-carbonyl]amino]-acetate]
The “Platelet Aggregation-Inhibiting Activity” value of the first is higher: 64.5% for the first, 64.3% for the second.

First: COC(=O)C1=C(C)NC(C)=C(C(=O)NCC(=O)N2CCN(c3ccccc3)CC2)C1c1cccc([N+](=O)[O-])c1 (stereo not drawn) [Example 58, methyl 1,4-dihydro-2,6-dimethyl-4-(3-nitrophenyl)-5-[N-[(4-phenylpiperazinyl)carbonylmethyl]-carbamoyl]pyridine-3-carboxylate]
Second: CCOC(=O)c1ccccc1NC(=O)C1=C(C)NC(C)=C(C(=O)OC)C1c1cccc([N+](=O)[O-])c1 (stereo not drawn) [Example 69, ethyl 2-[N-[1,4-dihydro-2,6-dimethy1-5-methoxycarbonyl-4-(3-nitrophenyl)pyridine-3-carbonyl]amino]-benzoate]
The “Platelet Aggregation-Inhibiting Activity” value of the first is lower: 22.1% for the first, 23.3% for the second.

Going from `COCCOC(=O)CNC(=O)C1=C(C)NC(C)=C(C(=O)OC)C1c1cccc([N+](=O)[O-])c1` (stereo not drawn) [Example 60] to `COC(=O)C1=C(C)NC(C)=C(C(=O)NCC(=O)OC(C)C)C1c1cccc([N+](=O)[O-])c1` (stereo not drawn) [Example 63, isopropyl 2-[N-[1,4-dihydro-2,6-dimethyl-5-methoxycarbonyl-4-(3-nitrophenyl)pyridine-3-carbonyl]-amino]acetate], the “Platelet Aggregation-Inhibiting Activity” value rises from 47.2% to 100%.

Compared with `CCOC(=O)CCNC(=O)C1=C(C)NC(C)=C(C(=O)OC)C1c1cccc([N+](=O)[O-])c1` (stereo not drawn) [Example 64, ethyl 3-[N-[1,4-dihydro-2,6-dimethyl-5-methoxycarbonyl-4-(3-nitrophenyl)pyridine-3-carbonyl]amino]-propionate], `CCOC(=O)CN(C)C(=O)C1=C(C)NC(C)=C(C(=O)OC)C1c1cccc([N+](=O)[O-])c1` (stereo not drawn) [Example 65] is lower in “Platelet Aggregation-Inhibiting Activity” value: 52.6% for the first, 42.7% for the second.

`COC(=O)C1=C(C)NC(C)=C(C(=O)NCC(=O)N[C@H](C(=O)OC(C)(C)C)C(C)C)C1c1cccc([N+](=O)[O-])c1` (stereo partly drawn) [Example 66, t-butyl 2-(S)-[N-[[N-[1,4-dihydro-2,6-dimethyl-5-methoxycarbonyl-4-(3-nitrophenyl)pyridine-3-carbonyl]amino]acetyl]amino]-3-methylbutylate] and `COC(=O)C1=C(C)NC(C)=C(C(=O)NCC(=O)OC(C)(C)C)[C@@H]1c1cccc([N+](=O)[O-])c1` [Example 79, (+)-t-butyl (S)-[2-[N-[1,4-dihydro-2,6-dimethyl-5-methoxycarbonyl-4-(3-nitrophenyl)pyridin-3-yl]-carbonyl]amino]acetate] are the same in “Platelet Aggregation-Inhibiting Activity” value: 100% for the first, 100% for the second.

Compared with `CCOC(=O)C1(NC(=O)C2=C(C)NC(C)=C(C(=O)OC)C2c2cccc([N+](=O)[O-])c2)CCCCC1` (stereo not drawn) [Example 67, ethyl 1-[N-[1,4-dihydro-2,6-dimethyl-5-methoxycarbonyl-4-(3-nitrophenyl)pyridine-3-carbonyl]amino]cyclohexanecarboxylate], `CCOC(=O)C(C)(C)NC(=O)C1=C(C)NC(C)=C(C(=O)OC)C1c1cccc([N+](=O)[O-])c1` (stereo not drawn) [Example 68, ethyl 2-[N-[1,4-dihydro-2,6-dimethyl-5-methoxycarbonyl-4-(3-nitrophenyl)pyridine-3-carbonyl]amino]isobutyrate] is higher in “Platelet Aggregation-Inhibiting Activity” value: 33.8% for the first, 34.1% for the second.

Compared with `CCOC(=O)c1nccnc1NC(=O)C1=C(C)NC(C)=C(C(=O)OC)C1c1cccc([N+](=O)[O-])c1` (stereo not drawn) [Example 70, ethyl 3-[N-[1,4-dihydro-2,6-dimethyl-5-methoxycarbonyl-4-(3-nitrophenyl)pyridine-3-carbonyl]amino]pyrazine-2-carboxylate], `CCOC(=O)C1=C(c2ccccc2)NC(C)=C(C(=O)NCC(=O)OC(C)(C)C)C1c1cccc([N+](=O)[O-])c1` (stereo not drawn) [Example 76] is higher in “Platelet Aggregation-Inhibiting Activity” value: 27.1% for the first, 46.3% for the second.

With `COC(=O)C1=C(C)NC(c2ccccc2)=C(C(=O)N[C@H](C(=O)OC(C)(C)C)C(C)C)C1c1cccc([N+](=O)[O-])c1` (stereo partly drawn) [Example 71, t-butyl 2-[N-[1,4-dihydro-6-methyl-5-methoxycarbonyl-4-(3-nitrophenyl)-2-phenylpyridine-3-carbonyl]amino]-3-methylbutylate] the “Platelet Aggregation-Inhibiting Activity” value was 100%.

From US5644059A, “1,4-dihydropyridine derivatives and methods of producing the same” (Fujirebio Inc., priority 1990, dated 1997)
